Data reported in patent US20220347146A1, “CANCER TREATMENT” (AXELIA ONCOLOGY PTY LTD, priority 2019, published 2022).

Key:
EMT6.5 cells = assay: EMT6.5 orthotopic mammary tumour model, i.v. therapy; format: in vivo, mouse
Description: Balb/c mice (n=12) were implanted orthotopically with 100,000 EMT6.5 cells into the 4th inguinal mammary gland and established tumours monitored by calliper measurement. When tumours were ˜200 mm^3 the mice were randomized to either one of two therapeutic arms (n=6 per arm); 1) compound A108 (10 μg, per mouse), or 2) Vehicle (saline) control. Therapy was administered intravenously to tumour bearing mice in three doses, three days apart. All mice completed therapy and were culled 21 days after tumour implant. The primary tumours, lungs and spleens were recovered and weighed. Lungs were analysed by real time quantitative PCR (RTQ-PCR) for evaluation of metastatic burden. Body weight was measured throughout the experiment.

[1] = cited from earlier work; for IL-10 and Tregs / anti-tumour activity: subcutaneous or intraperitoneal administration (Yamazaki et al. 2011)

severe weight loss (EMT6.5 cells; 10 μg per mouse i.v., three doses) | Compound | body weight on initial therapy (EMT6.5 cells; 10 μg per mouse i.v., three doses three days apart, data not shown) | reversibility of weight loss (EMT6.5 cells; following cessation of therapy) | IL-10 and Tregs [1] | anti-tumour activity [1] | myeloid derived suppressor cells ([1]; intravenous administration (Maruyama et al. 2015))
No severe weight loss was observed | CCCCCCCCCCCCCCCC(=O)OC[C@H](CSC[C@H](N)C(=O)N[C@@H](CO)C(=O)NCCOCCOCCOCCOCCOCCOCCOCCOCCOCCOCCOCCOCCOCCOCCOCCOCCOCCOCCOCCOCCOCCOCCOCCOCCOCCOCCOCCOCCC(=O)NCC(N)=O)OC(=O)CCCCCCCCCCCCCCC [A108] | induced an acute weight loss | reversible following cessation of therapy |  |  | 
 | MALP2 |  |  | induce IL-10 and Tregs | no anti-tumour activity | 
 | Pam2CysSK4 |  |  | induce IL-10 and Tregs | no anti-tumour activity | promotes myeloid derived suppressor cells
